Data: patent US20220396565A1 (Hoffmann-La Roche Inc., priority 2020, published 2022)
Counter-ions that a name gives are not always drawn.

Tested on: Acinetobacter baumannii ATCC17961
Test: Antimicrobial susceptibility testing: 90% growth inhibitory concentration (IC90) determination, Iso-Sensitest broth
Format: cell-based
Conditions: Acinetobacter baumannii, ATCC17961, 90% growth inhibitory concentration, Acinetobacter baumannii ATCC17961, Iso-Sensitest broth; read-out: ATCC 17961 IC90
Protocol: The in vitro antimicrobial activity of the compounds was determined according to the following procedure:
The assay used a 10-points Iso-Sensitest broth medium to measure quantitatively the in vitro activity of the compounds against Acinetobacter baumannii ATCC17978 or ATCC17961.
Stock compounds in DMSO were serially twofold diluted (e.g. range from 10 to 0.02 μM final concentration) in 384 wells microtiter plates and inoculated with 49 μl the bacterial suspension in Iso-Sensitest medium to have a final cell concentration of ˜5×10^(5) CFU/ml in a final volume/well of 50 ul/well. Microtiter plates were incubated at 35±2° C.
Bacterial cell growth was determined with the measurement of optical density at k=600 nm each 20 minutes over a time course of 16 h. Growth inhibition was calculated during the logarithmic growth of the bacterial cells with determination of the concentration inhibiting 50% (IC50) and 90% (IC90) of the growth.
Table 1 provides the 90% growth inhibitory concentrations (IC90) in micromoles per liter of the compounds of present invention obtained against the strain Acinetobacter baumannii ATCC17978 or ATCC17961.

| IC90 [nM] | Compound |
| --- | --- |
| 60 | Cn1c(-c2ccc(OCF)c(F)c2Cl)cnc1C(=O)Nc1ccc(C(=O)N2CCC(C(=O)NC[C@@H]3CCNC3)CC2)c(Cl)c1 [Example 62, 1-[2-chloro-4-[[5-[2-chloro-3-fluoro-4-(fluoromethoxy)phenyl]-1-methyl-imidazole-2-carbonyl]amino]benzoyl]-N-[[(3R)-pyrrolidin-3-yl]methyl]piperidine-4-carboxamide formate] |
| 90 | COc1ccc(-c2cnc(C(=O)Nc3ccc(C(=O)N4CCC(C(=O)NCC5CCN5)CC4)c(Cl)c3)n2C)c(F)c1F (stereo not shown) [Example 63, N-(azetidin-2-ylmethyl)-1-[2-chloro-4-[[5-(2,3-difluoro-4-methoxy-phenyl)-1-methyl-imidazole-2-carbonyl]amino]benzoyl] piperidine-4-carboxamide formate] |
| 60 | COc1ccc(-c2cnc(C(=O)Nc3ccc(C(=O)N4CCC(C(=O)N[C@@H]5CCNC5)CC4)c(Cl)c3)n2C)c(F)c1F [Example 64, 1-[2-chloro-4-[[5-(2,3-difluoro-4-methoxy-phenyl)-1-methyl-imidazole-2-carbonyl]amino]benzoyl]-N-[(3R)-pyrrolidin-3-yl]piperidine-4-carboxamide formate] |
| 50 | Cn1c(-c2ccc(OCF)c(F)c2Cl)cnc1C(=O)Nc1ccc(C(=O)N2CCC(C(=O)N[C@H]3CCNC3)CC2)c(Cl)c1 [Example 65, 1-[2-chloro-4-[[5-[2-chloro-3-fluoro-4-(fluoromethoxy)phenyl]-1-methyl-imidazole-2-carbonyl]amino]benzoyl]-N-[(3S)-pyrrolidin-3-yl]piperidine-4-carboxamide formate] |
| 140 | COc1ccc(-c2cnc(C(=O)Nc3ccc(C(=O)N4CC(C(=O)N5CC(CN)C5)C4)c(Cl)c3)n2C)c(F)c1F [Example 66, N-[4-[3-[3-(aminomethyl)azetidine-1-carbonyl]azetidine-1-carbonyl]-3-chloro-phenyl]-5-(2,3-difluoro-4-methoxy-phenyl)-1-methyl-imidazole-2-carboxamide formate] |
| 3300 | COc1ccc(-c2cnc(C(=O)Nc3ccc(C(=O)N4CCC(C(=O)NCCC(=O)O)CC4)c(Cl)c3)n2C)c(F)c1F [Example 67, 3-[[1-[2-chloro-4-[[5-(2,3-difluoro-4-methoxy-phenyl)-1-methyl-imidazole-2-carbonyl]amino]benzoyl]piperidine-4-carbonyl]amino]propanoic acid] |
| 2100 | COc1ccc(-c2cnc(C(=O)Nc3ccc(C(=O)N4CCC(C(=O)NCCCC(=O)O)CC4)c(Cl)c3)n2C)c(F)c1F [Example 68, 4-[[1-[2-chloro-4-[[5-(2,3-difluoro-4-methoxy-phenyl)-1-methyl-imidazole-2-carbonyl]amino]benzoyl]piperidine-4-carbonyl]amino]butanoic acid] |
| 120 | COc1ccc(-c2cnc(C(=O)Nc3ccc(C(=O)N4CC(C(=O)N5CCNCC5)C4)c(Cl)c3)n2C)c(F)c1F [Example 69, N-[3-chloro-4-[3-(piperazine-1-carbonyl)azetidine-1-carbonyl]phenyl]-5-(2,3-difluoro-4-methoxy-phenyl)-1-methyl-imidazole-2-carboxamide formate] |
| 140 | COc1ccc(-c2cnc(C(=O)Nc3ccc(C(=O)N4CC(C(=O)N5C[C@H]6CNC[C@H]6C5)C4)c(Cl)c3)n2C)c(F)c1F [Example 70, N-[4-[3-[(3aR,6aS)-2,3,3a,4,6,6a-hexahydro-1H-pyrrolo[3,4-c]pyrrole-5-carbonyl]azetidine-1-carbonyl]-3-chloro-phenyl]-5-(2,3-difluoro-4-methoxy-phenyl)-1-methyl-imidazole-2-carboxamide formate] |
| 470 | COc1ccc(-c2cnc(C(=O)Nc3ccc(C(=O)N4CCC(C(=O)N5C[C@H]6CCN[C@H]6C5)C4)c(Cl)c3)n2C)c(F)c1F (stereo partly drawn) [Example 71, N-[4-[3-[(3aR,6aR)-2,3,3a,4,6,6a-hexahydro-1H-pyrrolo[3,4-b]pyrrole-5-carbonyl]pyrrolidine-1-carbonyl]-3-chloro-phenyl]-5-(2,3-difluoro-4-methoxy-phenyl)-1-methyl-imidazole-2-carboxamide formate] |
